25 molecules from patent US20250051319A1 (AUGUSTINE THERAPEUTICS, priority 2021, published 2025) can be followed below.

The target of assay [1] is catalytic domain 2 (CD2) of HDAC6 (Homo sapiens (Human), UniProt Q9UBN7). The assay can be described thus: Cellular target engagement assay - NanoBRET. The class given is cell-based. The following applies: NanoLuc-HDAC6(CD2) in HEK293T cells, 2 hours, read-out: IC50 (HDAC6(CD2) interaction). Background: Bioluminescence resonance energy transfer reports proximity on the nanometre scale.

Assay [2] deals with human full-length recombinant HDAC6 (Homo sapiens (Human), UniProt Q9UBN7). The experiment in a line: HDAC6 enzymatic activity assay (alternative protocol, Ac-Gly-Ala-Lys(Ac)-AMC). The following applies: 5 nM enzyme, read-out: HDAC6 biochem. The class given is biochemical. On the procedure:
(§1) Inhibition of HDAC enzymes was performed in 384-well plate format using human full-length recombinant HDAC1 and HDAC6, isolated from a baculovirus expression system in Sf9 cells (BPS Bioscience). Reaction buffer for HDAC1 contained 50 mM Tris HCl pH 8.0, 137 mM NaCl, 2.7 mM KCl, 1 mM MgCl2, 0.1 mg/mL BSA, and reaction buffer for HDAC6 contained 50 mM Tris/HCl, pH 8.0, 137 mM NaCl, 2.7 mM KCl, 250 μM EDTA, 1 mM DTT, 0.1 mg/mL BSA. Compounds (dissolved in 100% DMSO) or DMSO (vehicle) were diluted in assay buffer at 3× final assay concentration and then added to assay plates. SAHA ([…]) was used as a positive control. 3× final assay concentration of recombinant enzymes (final assay concentration is 4 nM and 5 nM for HDAC1 and HDAC6, respectively) were preincubated for 10 minutes with test compounds at room temperature. Afterwards, 3× final assay concentration of an acetylated fluorogenic peptide (Ac-Gly-Ala-Lys(Ac))-AMC, Bachem; final assay concentration is 12 µM and 40 µM for HDAC1 and HDAC6, respectively) was added to assay plate, allowing deacetylase reactions to incubate for 60 minutes at room temperature. The developer reagent containing 5 μM SAHA and 50 μM trypsin was added to stop the deacetylase reaction and generate AMNC-fluorescence. 15 minutes after addition of developer reagent, endpoint measurements were taken using CLARIOstar (BMG Labtech) plate reader (excitation/emission: 360/450). Fluorescence signals were normalized for each plate using GraphPad Prism software: reaction HDAC-substrate in presence of DMSO was set to 100% while reaction HDAC-substrate in presence of 10 μM SAHA was set to 0%.

Assay [3] deals with human full-length recombinant HDAC1 (Homo sapiens (Human), UniProt Q13547). The experiment in a line: HDAC1 enzymatic activity assay (alternative protocol, Ac-Gly-Ala-Lys(Ac)-AMC). The assay is classed as biochemical. The following applies: 4 nM enzyme, read-out: HDAC1 biochem. How it is done:
as §1

Structures are written as SMILES. Where only a bound is given, the exact number is not on record here.

Chain of human full-length recombinant HDAC6 (Q9UBN7 whole entry): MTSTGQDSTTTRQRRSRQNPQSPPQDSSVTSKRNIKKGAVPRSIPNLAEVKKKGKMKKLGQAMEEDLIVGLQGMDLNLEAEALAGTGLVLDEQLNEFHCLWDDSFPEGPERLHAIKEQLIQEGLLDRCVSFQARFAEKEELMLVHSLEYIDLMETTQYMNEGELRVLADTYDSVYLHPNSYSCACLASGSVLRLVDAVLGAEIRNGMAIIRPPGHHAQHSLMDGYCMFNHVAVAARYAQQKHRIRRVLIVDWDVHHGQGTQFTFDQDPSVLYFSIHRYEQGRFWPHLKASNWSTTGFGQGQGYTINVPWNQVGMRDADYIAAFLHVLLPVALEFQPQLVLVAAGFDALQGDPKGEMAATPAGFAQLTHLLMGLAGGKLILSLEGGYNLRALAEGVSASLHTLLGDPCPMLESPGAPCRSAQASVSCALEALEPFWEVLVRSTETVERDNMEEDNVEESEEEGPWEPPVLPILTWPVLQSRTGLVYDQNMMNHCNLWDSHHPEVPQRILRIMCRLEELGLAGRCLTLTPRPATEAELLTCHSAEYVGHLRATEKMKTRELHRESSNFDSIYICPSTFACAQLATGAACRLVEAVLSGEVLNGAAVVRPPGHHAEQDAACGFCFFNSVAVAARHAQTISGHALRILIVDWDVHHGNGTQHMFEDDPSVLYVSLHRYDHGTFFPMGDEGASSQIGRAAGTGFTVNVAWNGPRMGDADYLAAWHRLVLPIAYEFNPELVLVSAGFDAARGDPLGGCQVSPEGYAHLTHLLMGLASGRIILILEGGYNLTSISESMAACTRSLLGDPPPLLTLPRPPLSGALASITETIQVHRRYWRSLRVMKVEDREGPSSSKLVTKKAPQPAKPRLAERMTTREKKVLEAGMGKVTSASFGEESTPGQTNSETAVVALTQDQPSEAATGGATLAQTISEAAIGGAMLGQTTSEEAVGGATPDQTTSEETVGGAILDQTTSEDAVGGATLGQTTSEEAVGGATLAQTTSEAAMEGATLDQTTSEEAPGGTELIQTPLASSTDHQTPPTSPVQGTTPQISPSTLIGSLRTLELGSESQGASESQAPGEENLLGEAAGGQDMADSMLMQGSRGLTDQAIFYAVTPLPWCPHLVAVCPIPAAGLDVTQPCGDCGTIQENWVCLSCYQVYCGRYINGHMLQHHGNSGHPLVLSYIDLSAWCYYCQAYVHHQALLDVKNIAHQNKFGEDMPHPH
Chain of catalytic domain 2 (CD2) of HDAC6 (Q9UBN7 482-800): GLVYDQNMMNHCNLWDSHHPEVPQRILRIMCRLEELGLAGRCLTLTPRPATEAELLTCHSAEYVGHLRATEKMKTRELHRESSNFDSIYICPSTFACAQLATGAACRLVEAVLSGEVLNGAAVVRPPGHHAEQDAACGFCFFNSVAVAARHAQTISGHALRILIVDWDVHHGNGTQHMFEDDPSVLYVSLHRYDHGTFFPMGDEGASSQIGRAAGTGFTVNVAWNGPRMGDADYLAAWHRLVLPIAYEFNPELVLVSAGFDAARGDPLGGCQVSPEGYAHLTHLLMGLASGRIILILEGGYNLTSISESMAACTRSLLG
Chain of human full-length recombinant HDAC1 (Q13547 whole entry): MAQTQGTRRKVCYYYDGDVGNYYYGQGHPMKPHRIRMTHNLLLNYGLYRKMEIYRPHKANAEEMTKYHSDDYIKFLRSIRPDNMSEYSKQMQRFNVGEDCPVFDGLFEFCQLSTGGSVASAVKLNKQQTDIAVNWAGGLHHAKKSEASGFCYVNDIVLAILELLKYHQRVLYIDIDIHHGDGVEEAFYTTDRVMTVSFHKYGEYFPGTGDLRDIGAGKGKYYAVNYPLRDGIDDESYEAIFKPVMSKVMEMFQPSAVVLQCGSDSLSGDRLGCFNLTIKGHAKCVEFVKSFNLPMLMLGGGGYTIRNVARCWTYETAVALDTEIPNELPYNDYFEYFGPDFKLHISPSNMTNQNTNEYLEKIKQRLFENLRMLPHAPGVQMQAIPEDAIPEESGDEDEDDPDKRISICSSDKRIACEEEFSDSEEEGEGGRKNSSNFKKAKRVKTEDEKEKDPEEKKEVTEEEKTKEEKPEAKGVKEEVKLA

Turning to `Cn1ncc2c(SCC(=O)c3ccc(CNC(=O)Cc4ccccn4)s3)ncnc21` [Compound 55, N-((5-(2-((1-methyl-1H-pyrazolo[3,4-d]pyrimidin-4-yl)thio)acetyl)thiophen-2-yl)methyl)-2-(160yrrolid-2-yl)acetamide], the results for the IC50 in assay [1], in assay [2] and in assay [3] were 500 to 1000 nM, at most 100 nM and above 10 µM, respectively.
The like results for `Cn1ncc2c(SCC(=O)c3ccc(CNC(=O)Cc4cccnc4)s3)ncnc21` [Compound 56, N-((5-(2-((1-methyl-1H-pyrazolo[3,4-d]pyrimidin-4-yl)thio)acetyl)thiophen-2-yl)methyl)-2-(160yrrolid-3-yl)acetamide] were, in that order, at most 100 nM, at most 100 nM and above 10 µM.
With `Cn1ncc2c(SCC(=O)c3ccc(CNC(=O)Cc4ccncc4)s3)ncnc21` [Compound 57, N-((5-(2-((1-methyl-1H-pyrazolo[3,4-d]pyrimidin-4-yl)thio)acetyl)thiophen-2-yl)methyl)-2-(160yrrolid-4-yl)acetamide], the IC50 was 100 to 500 nM in assay [1], at most 100 nM in assay [2] and above 10 µM in assay [3].
The like results for `COCC(=O)NCc1ccc(C(=O)CSc2ncnc3c2cnn3C)s1` [Compound 58, 2-methoxy-N-((5-(2-((1-methyl-1H-pyrazolo[3,4-d]pyrimidin-4-yl)thio)acetyl)thiophen-2-yl)methyl)acetamide] were, in that order, 1000 to 10000 nM, at most 100 nM and above 10 µM.
`Cn1ncc2c(SCC(=O)c3ccc(CNC(=O)CO)s3)ncnc21` [Compound 59, 2-hydroxy-N-((5-(2-((1-methyl-1H-pyrazolo[3,4-d]pyrimidin-4-yl)thio)acetyl)thiophen-2-yl)methyl)acetamide]: the IC50 is 100 to 500 nM in assay [1], at most 100 nM in assay [2] and above 10 µM in assay [3].
The like results for `Cn1ncc2c(SCC(=O)c3ccc(CNS(C)(=O)=O)s3)ncnc21` [Compound 87] were, in that order, 100 to 500 nM, at most 100 nM and above 10 µM.
The like results for `Cn1ncc2c(SCC(=O)c3ccc(CNS(=O)(=O)Cc4ccccc4)s3)ncnc21` [Compound 90, N-((5-(2-((1-methyl-1H-pyrazolo[3,4-d]pyrimidin-4-yl)thio)acetyl)thiophen-2-yl)methyl)-1-phenylmethanesulfonamide] were, in that order, 1000 to 10000 nM, at most 100 nM and above 10 µM.
The like results for `CN(Cc1ccc(C(=O)CSc2ncnc3c2cnn3C)s1)S(=O)(=O)C1CC1` [Compound 91, N-methyl-N-((5-(2-((1-methyl-1H-pyrazolo[3,4-d]pyrimidin-4-yl)thio)acetyl)thiophen-2-yl)methyl)cyclopropanesulfonamide] were, in that order, 100 to 500 nM, at most 100 nM and above 10 µM.
Consider `CN(Cc1ccc(C(=O)CSc2ncnc3c2cnn3C)s1)S(=O)(=O)Cc1ccncc1` [Compound 92, N-methyl-N-((5-(2-((1-methyl-1H-pyrazolo[3,4-d]pyrimidin-4-yl)thio)acetyl)thiophen-2-yl)methyl)-1-(162yrrolid-4-yl)methanesulfonamide], for which the IC50 was 100 to 500 nM in assay [1], at most 100 nM in assay [2] and 1 to 10 µM in assay [3].
The matching figures for `Cc1nc(SCC(=O)c2ccc(CNS(=O)(=O)CC3CC3)s2)c2ccccc2n1` [Compound 93, 1-cyclopropyl-N-((5-(2-((2-methylquinazolin-4-yl)thio)acetyl)thiophen-2-yl)methyl)methanesulfonamide]: 100 to 500 nM, at most 100 nM and above 10 µM.
The matching figures for `Cc1nc(SCC(=O)c2ccc(CCNS(C)(=O)=O)s2)c2ccccc2n1` [Compound 94, N-(2-(5-(2-((2-methylquinazolin-4-yl)thio)acetyl)thiophen-2-yl)ethyl)methanesulfonamide]: 100 to 500 nM, at most 100 nM and above 10 µM.
The like results for `CS(=O)(=O)N1CCC(c2ccc(C(=O)CSc3nc(C(F)(F)F)nc4ccccc34)s2)C1` (centres unmarked) [Compound 95, 1-(5-(1-(methylsulfonyl)163yrrolidine-3-yl)thiophen-2-yl)-2-((2-(trifluoromethyl)quinazolin-4-yl)thio)ethanone] were, in that order, 100 to 500 nM, at most 100 nM and above 10 µM.
With `Cc1nc(SCC(=O)c2ccc(CNS(C)(=O)=O)s2)c2ccccc2n1` [Compound 97, N-((5-(2-((2-methylquinazolin-4-yl)thio)acetyl)thiophen-2-yl)methyl)methanesulfonamide], the IC50 in assay [1] is 100 to 500 nM; in assay [2] it was at most 100 nM; in assay [3], 1 to 10 µM.
With `CS(=O)(=O)NCCc1ccc(C(=O)CSc2nc(C(F)(F)F)nc3ccccc23)s1` [Compound 98, N-(2-(5-(2-((2-(trifluoromethyl)quinazolin-4-yl)thio)acetyl)thiophen-2-yl)ethyl)methanesulfonamide], the figures for the IC50 in assay [1], in assay [2] and in assay [3] were at most 100 nM, at most 100 nM and above 10 µM, respectively.
Turning to `CC(C)c1nc(SCC(=O)c2ccc(CNC(=O)C(C)(C)C)s2)c2ccccc2n1` [Example 1, N-((5-(2-((2-isopropylquinazolin-4-yl)thio)acetyl)thiophen-2-yl)methyl)pivalamide], the IC50 in assay [1] is 100 to 500 nM; in assay [2], at most 100 nM; in assay [3], above 10 µM.
The matching figures for `CC(C)(C)C(=O)NCc1ccc(C(=O)CSc2nc(C3CC3)nc3ccccc23)s1` [Example 2, N-((5-(2-((2-cyclopropylquinazolin-4-yl)thio)acetyl)thiophen-2-yl)methyl)pivalamide]: 100 to 500 nM, at most 100 nM and above 10 µM.
The like results for `Cc1nc(SCC(=O)c2ccc(CNC(=O)C(C)(C)C)s2)c2ccccc2n1` [Example 3, N-((5-(2-((2-methylquinazolin-4-yl)thio)acetyl)thiophen-2-yl)methyl)pivalamide] were, in that order, at most 100 nM, at most 100 nM and 1 to 10 µM.
The matching figures for `COCc1nc(SCC(=O)c2ccc(CNC(=O)C(C)(C)C)s2)c2ccccc2n1` [Example 4, N-((5-(2-((2-(methoxymethyl)quinazolin-4-yl)thio)acetyl)thiophen-2-yl)methyl)pivalamide]: 500 to 1000 nM, at most 100 nM and above 10 µM.
`Cc1nc(SCC(=O)c2ccc(CNC(=O)C(C)(C)C)s2)c2cnn(C)c2n1` [Example 5, N-((5-(2-((1,6-dimethyl-1H-pyrazolo[3,4-d]pyrimidin-4-yl)thio)acetyl)thiophen-2-yl)methyl)pivalamide]: the results for the IC50 in assay [1], in assay [2] and in assay [3] were 500 to 1000 nM, at most 100 nM and above 10 µM, respectively.
The like results for `Cn1ncc2c(SCC(=O)c3ccc(CNC(=O)C(C)(C)C)s3)nc(C3CC3)nc21` [Example 6, N-((5-(2-((6-cyclopropyl-1-methyl-1H-pyrazolo[3,4-d]pyrimidin-4-yl)thio)acetyl)thiophen-2-yl)methyl)pivalamide] were, in that order, 100 to 500 nM, at most 100 nM and above 10 µM.
The like results for `Cc1nc(SCC(=O)c2ccc(CNC(=O)C(C)(C)C)s2)c2cccnc2n1` [Example 7, N-((5-(2-((2-methylpyrido[2,3-d]pyrimidin-4-yl)thio)acetyl)thiophen-2-yl)methyl)pivalamide] were, in that order, at most 100 nM, at most 100 nM and 1 to 10 µM.
In the case of `Cn1ncc2c(SCC(=O)c3ccc(CNC(=O)Cc4ccccc4)s3)ncnc21` [Example 32, N-((5-(2-((1-methyl-1H-pyrazolo[3,4-d]pyrimidin-4-yl)thio)acetyl)thiophen-2-yl)methyl)-2-phenylacetamide], the IC50 is at most 100 nM in assay [2] and above 10 µM in assay [3].
The like results for `CC(C)(C)C(=O)NCc1ccc(C(=O)CSc2nc(C(F)(F)F)cc3ccccc23)s1` [Example 191, N-((5-(2-((3-(trifluoromethyl)isoquinolin-1-yl)thio)acetyl)thiophen-2-yl)methyl)pivalamide] were, in that order, 1000 to 10000 nM and above 10 µM.
The matching figures for `Cn1ncc2c(SCC(=O)c3nnc(CNC(=O)C(C)(C)C)s3)ncnc21` [Example 192, N-((5-(2-(1-methyl-1H-pyrazolo[3,4-d]pyrimidin-4-ylthio)acetyl)-1,3,4-thiadiazol-2-yl)methyl)pivalamide]: 100 to 500 nM and 0.5 to 1 µM.
The like results for `CC(C)(C)C(=O)NCc1ccc(C(=O)CSc2nnc(C(F)(F)F)c3ccccc23)s1` [Example 195] were, in that order, at most 100 nM and above 10 µM.
